Columns and labels:
[1] = test system: blood cell fraction; assay: TDR-test in vitro, blood of patient B. (Example 2); assay type: cell-based, human; conditions: for reduction TDR: patient B. blood, after 24 hours of incubation
Protocol: Individual selection of anticancer chemotherapy was based on testing the dynamics of TDR in blood with cytostatics—Etoposide (in single therapeutic doses 80-100-120 mg/m2), Cisplatin (25-50-75-100 mg/m2), Carboplatin (150-300-450 mg/m2), Gemcitabine (800-1000-1200 mg/m2), Navelbine (25-30-35 mg/m2), Doxorubicin (20-30-40 mg/m2), Epidoxorubicin (50-70-90 mg/m2), Mitomycin C (4-6-8 mg/m2).

[2] = test system: whole blood; assay: TDR-test in vitro, blood of patient G. (Example 1); assay type: cell-based, human; conditions: for reduction TDR: after 24 hours of incubation
[3] = test system: patient's blood; assay: TDR-test in vitro, blood of patient M. (Example 4); conditions: various doses, 1, 2 and 24 hours
Protocol: Therefore, we first proposed to take, in fact, it is a dynamic integrated assessment test “in vitro” level of nonspecific resistance to therapeutic agents during interaction with the blood of the patient. Selection of optimal treatments, their doses and combinations proposed to control the TDR dynamics within 24-72 hours, with some time intervals. The choice of temporary interval for determination the TDR dynamic is defined of main stage of the biochemical interaction of medicine (or non-drug therapeutic influence) with blood of the patient in vitro (phase 1—induction of biochemical reactions within the first 10-40 minutes, 2nd—for 1-3 hours, 3rd—within 24-72 hours). Therefore, TDR is expedient to record in intervals of precisely these three main stages of the induced signal transduction and protein synthesis (30-60 minutes, 2-3 hours, 24-72 hours after the start of testing).

[4] = test system: Chronic obstructive bronchitis; assay: Treatment of patient M.; assay type: in vivo, human; conditions: endobronchial 250 mg followed by inductothermy 30 minutes, 1 treatment per day, 10 procedures, 2 weeks
Protocol: Based on the results of investigations the patient was assigned to a combination of antibiotic Cefazolin and inductothermy: endobronchial administration of Cefazolin 250 mg and immediately after this session inductothermy the projection of the large bronchi in the anterior-posterior direction with opposing fields of the two vehicles “Magniterm” for 30 minutes.

[5] = test system: microflora of the respiratory tract; assay: Sputum sample sensitivity to antibiotics (antibiotikogramma); assay type: cell-based; conditions: sputum sample of patient M.
[6] = test system: Chronic rhinitis of allergic origin, chronic bronchitis; assay: Treatment of patient F.; assay type: in vivo, human; conditions: before individual testing
Protocol: Diagnosis: “Chronic rhinitis of allergic origin, chronic bronchitis, allergic component in the acute stage.” In history: positive allergic reactions to penicillin antibiotics, the lack of reaction to tetracycline antibiotics. […] Doxycycline is used in doses of 100 mg and 200 mg on admission; when calculating the duration of induktothermy effect was adopted by the duration of the patient's blood sample for 2 seconds, which corresponds to the length of the actual procedure, 25-30 minutes.

For `Nc1ccn([C@@H]2O[C@H](CO)[C@@H](O)C2(F)F)c(=O)n1` [Gemcitabine], the “reduction TDR” value ([1]; dose 1200 mg/m2) was 30%.
In the case of `CC(=O)O[C@H]1C(=O)[C@@]2(C)[C@H]([C@H](OC(=O)c3ccccc3)[C@]3(O)C[C@H](OC(=O)[C@H](O)[C@@H](NC(=O)c4ccccc4)c4ccccc4)C(C)=C1C3(C)C)[C@]1(OC(C)=O)CO[C@@H]1C[C@@H]2O` [Paclitaxel], the “reduction TDR” value ([1]; dose 190 mg/m2) is reported as 25% and the “reduction TDR” value ([2]; dose 175 mg/m2) is reported as 28%.
`N.N.O=C([O-])C1(C(=O)[O-])CCC1.[Pt+2]` [Carboplatin] was tested, and the “reduction TDR” value ([1]; dose 350 mg/m2) was 27% and the “reduction TDR” value ([2]; dose 450 mg/m2) was 36%.
In the case of `O=P1(N(CCCl)CCCl)NCCCO1` (stereo not drawn) [Cyclophosphamide], the “reduction TDR” value ([2]; dose 600 mg/m2) is reported as 30%.
For `Cc1nnc(SCC2=C(C(=O)O)N3C(=O)[C@@H](NC(=O)Cn4cnnn4)[C@H]3SC2)s1` [Cefazolin], the “change of TDR in blood samples during the incubation” value [3] was “progressive decrease”, the clinical outcome [4] was “sustained remission of chronic bronchitis” and the “sensitivity of the microflora to the antibiotic” value [5] was “highly sensitive”.
In the case of `CC[C@H]1OC(=O)[C@H](C)[C@@H](O[C@H]2C[C@@](C)(OC)[C@@H](O)[C@H](C)O2)[C@H](C)[C@@H](O[C@@H]2O[C@H](C)C[C@H](N(C)C)[C@H]2O)[C@](C)(O)C[C@@H](C)C(=O)[C@H](C)[C@@H](O)[C@]1(C)O` [Erythromycin], the “efficiency of conventional therapy” value [6] is reported as “low efficiency”.
In the case of `CN1CCc2c(c3ccccc3n2Cc2ccccc2)C1` [Diazolin], the “efficiency of conventional therapy” value [6] is reported as “low efficiency”.
In the case of `CC(=O)N[C@H]1[C@H](O[C@H]2[C@H](O[C@H](C)C(=O)N[C@@H](C)C(=O)N[C@H](CCC(=O)O)C(N)=O)[C@@H](NC(C)=O)C(O)O[C@@H]2CO)O[C@H](CO)[C@@H](O)[C@@H]1O` (stereo partly drawn) [GMDP, glucosomuramyldipeptide], the “increase in TDR compared with the control” value ([1]; patient B. blood cell fraction, after 1 hour of incubation, dose 50 mg) is reported as 78%, the “increase in TDR” value ([1]; patient B. blood cell fraction, after 24 h of incubation, dose 10 mg) is reported as 228% and the “TDR increase compared to control” value ([2]; 24 h incubation, dose 5 mg) is reported as 64%.
In the case of `CCC1=C[C@@H]2CN(C1)Cc1c([nH]c3ccccc13)[C@@](C(=O)OC)(c1cc3c(cc1OC)N(C)[C@H]1[C@@](O)(C(=O)OC)[C@H](OC(C)=O)[C@]4(CC)C=CCN5CC[C@]31[C@@H]54)C2` [Navelbine], the “reduction TDR” value ([1]; dose 25 mg/m2) is reported as 20%.
With `N.N.[Cl][Pt][Cl]` [Cisplatin] the “reduction TDR” value ([1]; dose 100 mg/m2) was 32% and the “reduction TDR” value ([2]; dose 75 mg/m2) was 32%.
With `COc1cc([C@@H]2c3cc4c(cc3[C@@H](O[C@@H]3O[C@@H]5CO[C@@H](C)O[C@H]5[C@H](O)[C@H]3O)[C@H]3COC(=O)[C@H]23)OCO4)cc(OC)c1O` [Etoposide] the “reduction TDR” value ([1]; dose 120 mg/m2) was 21%.
